Patent US9149476B2, “Thiochromene derivatives as HIF hydroxylase inhibitors” (FibroGen, Inc., priority 2008, dated 2015)
One block for each molecule: values may come before it.

Molecular target: T1, HIF-PH2 (EGLN1) (Homo sapiens, UniProt Q9GZT9)
T1 construct: made in house; host or cells: insect Hi5 cells
Experiment: HIF-PH assay (14CO2 capture, peptide-dependent turnover)
Type: biochemical
Conditions: for inhibition at 50 µM: compound concentration 50 μM; for inhibition at 7.4 µM: compound concentration 7.4 μM
Excerpt: Ketoglutaric acid α-[1-^14C]-sodium salt, alpha-ketoglutaric acid sodium salt, and HPLC purified peptide may be obtained from commercial sources, e.g., Perkin-Elmer (Wellesley Mass.), Sigma-Aldrich, and SynPep Corp. (Dublin Calif.), respectively. Peptides for use in the assay may be fragments of HIFα as described above or as disclosed in International Publication WO 2005/118836, incorporated by reference herein. For example, a HIF peptide for use in the HIF-PH assay is [methoxycoumarin]-DLDLEALAPYIPADDDFQL-amide (SEQ ID NO:2). HIF-PH, e.g., HIF-PH2 (EGLN1), can be expressed in, e.g., insect Hi5 cells, and partially purified, e.g., through a SP ion exchange chromatography column. Enzyme activity is determined by capturing ^14CO2 using an assay described by Kivirikko and Myllyla (1982, Methods Enzymol. 82:245-304). Assay reactions contain 50 mM HEPES (pH 7.4), 100 μM α-ketoglutaric acid sodium salt, 0.30 μCi/mL ketoglutaric acid α-[1-^14C]-sodium salt, 40 μM FeSO4, 1 mM ascorbate, 1541.8 units/mL Catalase, with or without 50 μM peptide substrate and various concentrations of compound of the invention. Reactions are initiated by addition of HIF-PH enzyme.
The peptide-dependent percent turnover is calculated by subtracting percent turnover in the absence of peptide from percent turnover in the presence of substrate peptide. Percent inhibition and IC50 are calculated using peptide-dependent percent turnover at given inhibitor concentrations. Calculation of IC50 values for each inhibitor is conducted using GraFit software (Erithacus Software Ltd., Surrey UK).
Representative compounds of the invention were analyzed using the HIF-PH assay described above. Table 1 presents enzyme inhibition data for exemplary compounds against HIF-PH2, a representative HIF prolyl hydroxylase. By inhibiting HIF prolyl hydroxylase, compounds of the invention stabilize HIFα, which then combines with HIFβ to form an active transcription factor that increases expression of various genes involved in numerous beneficial cellular processes.

T1 sequence (Q9GZT9 whole entry): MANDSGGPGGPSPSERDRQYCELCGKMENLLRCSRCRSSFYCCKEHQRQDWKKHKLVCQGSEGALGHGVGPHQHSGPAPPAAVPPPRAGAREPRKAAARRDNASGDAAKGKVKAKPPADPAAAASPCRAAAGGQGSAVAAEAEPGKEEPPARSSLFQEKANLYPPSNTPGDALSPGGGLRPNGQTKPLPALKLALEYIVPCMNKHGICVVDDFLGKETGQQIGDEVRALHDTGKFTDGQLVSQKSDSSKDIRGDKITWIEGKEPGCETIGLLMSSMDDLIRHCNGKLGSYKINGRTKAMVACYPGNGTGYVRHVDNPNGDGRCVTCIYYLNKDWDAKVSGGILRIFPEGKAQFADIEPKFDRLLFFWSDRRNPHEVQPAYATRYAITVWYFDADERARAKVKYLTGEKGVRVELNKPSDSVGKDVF

inhibition at 7.4 µM: 99.7%
Compound: O=C(O)CNC(=O)c1c(O)c2cc(Cl)cc(C#Cc3ccccc3)c2sc1=O [Example 56, [(6-Chloro-4-hydroxy-2-oxo-8-phenylethynyl-2H-thiochromene-3-carbonyl)-amino]-acetic acid]

inhibition at 7.4 µM: 98.4%
Compound: C[C@H](NC(=O)c1c(O)c2ccccc2sc1=O)C(=O)O [Example 57, 2-(S)-[(4-Hydroxy-2-oxo-2H-thiochromene-3-carbonyl)-amino]-propionic acid]

inhibition at 7.4 µM: 96.8%
Compound: O=C(O)CNC(=O)c1c(O)c2cc(Cl)ccc2sc1=O [Example 58, [(6-Chloro-4-hydroxy-2-oxo-2H-thiochromene-3-carbonyl)-amino]-acetic acid]

inhibition at 50 µM: 95.6%
Compound: C[C@H](NC(=O)c1c(O)c2cc(Cl)ccc2sc1=O)C(=O)O [Example 59, 2-(S)-[(6-Chloro-4-hydroxy-2-oxo-2H-thiochromene-3-carbonyl)-amino]-propionic acid]

inhibition at 50 µM: 96.5%
Compound: O=C(O)CNC(=O)c1c(O)c2ccc(Cl)cc2sc1=O [Example 60, [(7-Chloro-4-hydroxy-2-oxo-2H-thiochromene-3-carbonyl)-amino]-acetic acid]

inhibition at 50 µM: 100%
Compound: C[C@H](NC(=O)c1c(O)c2ccc(Cl)cc2sc1=O)C(=O)O [Example 61, 2-(S)-[(7-Chloro-4-hydroxy-2-oxo-2H-thiochromene-3-carbonyl)-amino]-propionic acid]

inhibition at 50 µM: 100%
Compound: O=C(O)CNC(=O)c1c(O)c2cc(OCc3ccccc3)ccc2sc1=O [Example 62, [(6-Benzyloxy-4-hydroxy-2-oxo-2H-thiochromene-3-carbonyl)-amino]-acetic acid]

inhibition at 50 µM: 98.9%
Compound: O=C(O)CNC(=O)c1c(O)c2cc(OCC3CCCCC3)ccc2sc1=O [Example 63, [(6-Cyclohexylmethoxy-4-hydroxy-2-oxo-2H-thiochromene-3-carbonyl)-amino]-acetic acid]

inhibition at 200 µM (compound concentration 200 μM): 100%
Compound: CCCCCCOc1ccc2sc(=O)c(C(=O)NCC(=O)O)c(O)c2c1 [Example 64, [(6-Hexyloxy-4-hydroxy-2-oxo-2H-thiochromene-3-carbonyl)-amino]-acetic acid]

The remaining lines, values behind:

Compound: O=C(O)CNC(=O)c1c(O)c2cc(-c3ccc(OC(F)(F)F)cc3)ccc2sc1=O [Example 40, {[4-Hydroxy-2-oxo-6-(4-trifluoromethoxy-phenyl)-2H-thiochromene-3-carbonyl]-amino}-acetic acid]
inhibition at 50 µM: 94.8%

Compound: O=C(O)CNC(=O)c1c(O)c2cc(NC(=O)c3ccccc3)ccc2sc1=O [Example 41, [(6-Benzoylamino-4-hydroxy-2-oxo-2H-thiochromene-3-carbonyl)-amino]-acetic acid]
inhibition at 50 µM: 100%

Compound: O=C(O)CNC(=O)c1c(O)c2cc(Cl)cc(Cc3ccccc3)c2sc1=O [Example 42, [(8-Benzyl-6-chloro-4-hydroxy-2-oxo-2H-thiochromene-3-carbonyl)-amino]-acetic acid]
inhibition at 50 µM: 100%

Compound: O=C(O)CNC(=O)c1c(O)c2cc(Cl)cc(-c3cc(C(F)(F)F)cc(C(F)(F)F)c3)c2sc1=O [Example 43, {[8-(3,5-Bis-trifluoromethyl-phenyl)-6-chloro-4-hydroxy-2-oxo-2H-thiochromene-3-carbonyl]-amino}-acetic acid]
inhibition at 50 µM: 100%

Compound: O=C(O)CNC(=O)c1c(O)c2cc(Cl)cc(-c3ccccc3)c2sc1=O [Example 44, [(6-Chloro-4-hydroxy-2-oxo-8-phenyl-2H-thiochromene-3-carbonyl)-amino]-acetic acid]
inhibition at 50 µM: 100%

Compound: Cn1nc(C(F)(F)F)cc1-c1cc(Cl)cc2c(O)c(C(=O)NCC(=O)O)c(=O)sc12 [Example 45, {[6-Chloro-4-hydroxy-8-(2-methyl-5-trifluoromethyl-2H-pyrazol-3-yl)-2-oxo-2H-thiochromene-3-carbonyl]-amino}-acetic acid]
inhibition at 50 µM: 100%

Compound: O=C(O)CNC(=O)c1c(O)c2cc(Cl)cc(-c3cccnc3)c2sc1=O [Example 46, [(6-Chloro-4-hydroxy-2-oxo-8-pyridin-3-yl-2H-thiochromene-3-carbonyl)-amino]-acetic acid]
inhibition at 50 µM: 100%

Compound: O=C(O)CNC(=O)c1c(O)c2cccc(Cc3ccccc3)c2sc1=O [Example 47, [(8-Benzyl-4-hydroxy-2-oxo-2H-thiochromene-3-carbonyl)-amino]-acetic acid]
inhibition at 50 µM: 100%

Compound: O=C(O)CNC(=O)c1c(O)c2cccc(-c3cc(C(F)(F)F)cc(C(F)(F)F)c3)c2sc1=O [Example 48, {[8-(3,5-Bis-trifluoromethyl-phenyl)-4-hydroxy-2-oxo-2H-thiochromene-3-carbonyl]-amino}-acetic acid]
inhibition at 50 µM: 100%

Compound: Cn1nc(C(F)(F)F)cc1-c1cccc2c(O)c(C(=O)NCC(=O)O)c(=O)sc12 [Example 49, {[4-Hydroxy-8-(2-methyl-5-trifluoromethyl-2H-pyrazol-3-yl)-2-oxo-2H-thiochromene-3-carbonyl]-amino}-acetic acid]
inhibition at 50 µM: 100%

Compound: O=C(O)CNC(=O)c1c(O)c2cccc(-c3cccnc3)c2sc1=O [Example 50, [(4-Hydroxy-2-oxo-8-pyridin-3-yl-2H-thiochromene-3-carbonyl)-amino]-acetic acid]
inhibition at 50 µM: 98.8%

Compound: O=C(O)CNC(=O)c1c(O)c2cccc(-c3ccccc3)c2sc1=O [Example 51, [(4-Hydroxy-2-oxo-8-phenyl-2H-thiochromene-3-carbonyl)-amino]-acetic acid]
inhibition at 50 µM: 98.8%

Compound: O=C(O)CNC(=O)c1c(O)c2c(F)cccc2sc1=O [Example 52, [(5-Fluoro-4-hydroxy-2-oxo-2H-thiochromene-3-carbonyl)-amino]-acetic acid]
inhibition at 50 µM: 98.5%

Compound: O=C(O)CNC(=O)c1c(O)c2ccc(C3CC3)cc2sc1=O [Example 53, [(7-Cyclopropyl-4-hydroxy-2-oxo-2H-thiochromene-3-carbonyl)-amino]-acetic acid]
inhibition at 50 µM: 99%

Compound: Cn1nc(C(F)(F)F)cc1-c1ccc2c(O)c(C(=O)NCC(=O)O)c(=O)sc2c1 [Example 54, {[4-Hydroxy-7-(2-methyl-5-trifluoromethyl-2H-pyrazol-3-yl)-2-oxo-2H-thiochromene-3-carbonyl]-amino}-acetic acid]
inhibition at 50 µM: 98.6%

Compound: C[C@H](NC(=O)c1c(O)c2ccc(-c3cc(C(F)(F)F)nn3C)cc2sc1=O)C(=O)O [Example 55, 2-(S)-{[4-Hydroxy-7-(2-methyl-5-trifluoromethyl-2H-pyrazol-3-yl)-2-oxo-2H-thiochromene-3-carbonyl]-amino}-propionic acid]
inhibition at 50 µM: 94.5%
